Our source for the IC50 values is PubChem BioAssay AID1117319 (Southern Research Institute, 2015).

Molecules are shown by their SMILES. Inconclusive results are not listed.

The experiment concerns the target Virion infectivity factor (Human immunodeficiency virus type 1 group M subtype B (isolate BH10)) + Virion infectivity factor (Human immunodeficiency virus type 1 group M subtype B (isolate BRU/LAI)) + Virion infectivity factor (Human immunodeficiency virus type 1 group M subtype B (isolate PCV12)) + Virion infectivity factor (Human immunodeficiency virus type 1 group M subtype B (isolate HXB2)) + DNA dC->dU-editing enzyme APOBEC-3G (Homo sapiens) (UniProt P69720+P69721+P69722+P69723+Q9HC16). Description: HIV-1 Vif–A3G interaction blockers – biochemical, TR-FRET, GST-Vif 1-94, biotin-A3G peptide, dose response retest, primary screen (AID 1117319).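 Further: Vif residues 1-94 fused to GST binding biotinylated APOBEC3G peptide 110-148.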 The following applies: TR-FRET GST-Vif / biotin-A3G peptide binding.
Take `Cc1cccc2c1c1ccc3c(c1n2C)C(=O)C=CC3=O`: the IC50 is 7.63 µM. For `Cc1noc(/C=C/c2ccco2)c1S(=O)(=O)N1CCC(C(=O)NCc2ccco2)CC1` the value was 1.84 µM. Consider `CCOC(=O)C1CCCN(c2ncnc3c2cnn3-c2ccc(Cl)cc2)C1` (stereo unspecified), for which the IC50 was 36 µM.

For `Cc1c(Br)c(O)c(Br)c2sc(=O)oc12`, the IC50 was 1.77 µM. As to `CN(CC(=O)Nc1c(Cl)cccc1Cl)C(=O)c1cccc(-n2cccc2)c1`, the IC50 is 31.3 µM. Take `Nc1cc(N)nc(SCc2cc([N+](=O)[O-])cc3c2OCOC3)n1`: the IC50 was 74.1 µM. Regarding `Cc1onc(-c2ccccc2Cl)c1C(=O)N1CCN(c2cccc(Cl)c2)CC1`, the IC50 is 95.4 µM. In the case of `O=C(O)c1ccc(-n2cccc2/C=C2/NC(=O)N(c3ccccc3)C2=O)cc1`, the IC50 was 3.34 µM.

As to `C=CCN(CC=C)C(=S)NC(=O)c1ccc([N+](=O)[O-])cc1`, the IC50 was 66.8 µM.

In the case of `N#C/C(=C/c1ccc(Br)o1)C(N)=S`, the IC50 was 3.87 µM. Take `O=C(NCCCO)Nc1ccc2nc(-c3ccco3)c(-c3ccco3)nc2c1`: the IC50 was 0.26 µM. Regarding `CCN(CC)S(=O)(=O)c1cccc(C(=O)N/N=C/c2ccc(O)c(O)c2O)c1`, the IC50 is 3.48 µM. Regarding `CCCC(=O)NC1=C(Cl)C(=O)c2ccccc2C1=O`, the IC50 is 13.1 µM. Take `O=[N+]([O-])c1ccc(Cl)c(S(=O)(=O)Nc2cccc(S(=O)(=O)NC3=NCCC3)c2)c1`: the IC50 is 5.64 µM.

Consider `COC/C=C/C1=CC2=CC(=O)C(C)(OC(=O)c3cnc4ccccc4n3)C(=O)C2=CN1c1ccccc1` (stereo unspecified), for which the IC50 was 2.74 µM. For the compound `O=C(Nc1ccccc1F)c1coc(=O)c(Br)c1`, the IC50 was 7.06 µM. For `Cn1cnnc1SC/C(O)=C(\C#N)c1nc2ccccc2[nH]1`, the IC50 was 19.7 µM.

As to `Cc1ccc(C)n1-c1ccc(-c2nnc3n2CCCCC3)s1`, the IC50 is 8.58 µM. With `Cc1ccc(Cn2c(=S)[nH]c3ccc(N4CCOCC4)cc3c2=O)o1` the figure was 0.61 µM; with `COc1ccc2ccccc2c1C1CC(=O)N2CN(Cc3ccco3)CSC2=C1C#N` (stereo unspecified), 53.6 µM; with `O=C(CCc1c[nH]c2ccccc12)N1CCN(c2ccc(O)cc2)CC1`, 13.3 µM. As to `Cc1cc(/C=N/Nc2ccc([N+](=O)[O-])cn2)c(C)n1-c1ccc(C(=O)O)cc1`, the IC50 is 3.25 µM. Regarding `Cc1ccccc1-c1nc(CN2CCC(C(=O)N3CCN(c4ccccn4)CC3)CC2)c(C)o1`, the half-inhibitory concentration (IC50) is 43.3 µM. Take `Nc1ccc(N2CCN(Cc3ccccc3Cl)CC2)c(Cl)c1`: the IC50 was 85.1 µM. As for `C=CC(=O)N1C/C(=C/c2ccc(F)cc2)C(=O)/C(=C\c2ccc(F)cc2)C1`, the IC50 was 7.41 µM. With `N=C(N)c1ccc(N=Nc2c(O)ccc3c2[nH]c2ccccc23)cc1` the figure was 3.87 µM; with `CC(C)(C)NC(=O)C(c1ccncc1)N(C(=O)CNC(=O)c1ccco1)c1ccc2c(c1)OCO2` (stereo unspecified), 11.3 µM. For `Oc1ccc(N=Cc2ccc(-c3cccs3)s2)cc1` the value was 0.92 µM; for `Cc1ccc[n+](-c2[nH]c(=O)sc2/C=N/NC(=O)c2ccccc2[O-])c1`, 51.4 µM. `O=C(CC1C(=O)NCCN1Cc1ccc(F)cc1)NCCN1CCCc2ccccc21` (stereo unspecified): the IC50 was 97.4 µM. With `CC1=CN2C(=N)/C(=C/c3ccc([N+](=O)[O-])o3)C(=O)N=C2S1` the figure was 2.91 µM.

Regarding `CC(/C=N/n1c(-c2ccncc2)n[nH]c1=S)=C\c1ccco1`, the IC50 is 5.1 µM. As to `O=C(CCN1CCN(c2ccccc2)CC1)N/N=C/c1ccc(O)c(O)c1O`, the IC50 was 1.02 µM. `CCCCn1c(SCC(=O)NCc2ccco2)nc2ccc(N3CCOCC3)cc2c1=O`: the IC50 is 12.5 µM. For `Cc1nn(Cc2ccccc2)c(C)c1C(=O)OCC(=O)c1cc(C)n(C2CC2)c1C` the value was 80.5 µM.

For `CCOc1cc(N2CCOCC2)c(OCC)cc1NC(=O)CSc1ncn[nH]1`, the IC50 was 11.9 µM. With `O=C(O)C1Nc2c(O)cc(Cl)c([N+](=O)[O-])c2C2C=CCC12` (stereo unspecified), the IC50 is 0.23 µM. For the compound `CC(=O)Nc1cccc(Oc2ncnc3scc(-c4ccccc4)c23)c1`, the half-maximal inhibitory concentration (IC50) was 16.8 µM. Consider `Cc1cc(Cl)cc2c1NC(=O)[C@]21[C@@H]2C(=O)N(Cc3ccccc3)C(=O)[C@@H]2[C@@H]2CCCN21`, for which the IC50 is 38 µM. For `COc1ccc(OC)c(NC(=O)NCc2ccc(F)cc2)c1` the value was 58.5 µM. Consider `CC[n+]1ccc(C)c2cc(S(=O)C(F)(F)F)ccc21` (stereo unspecified), for which the IC50 was 8.8 µM. In the case of `CSc1ccc(/C=N/Nc2cccc(C(=O)O)c2)cc1`, the 50% inhibitory concentration (IC50) is 11.2 µM. For `O=C(O)CC(C(=O)O)N1C(=O)/C(=C/C=C/c2ccco2)SC1=S` (stereo unspecified) the value was 0.96 µM; for `O=C(O)CCCN1C(=O)/C(=C\C(Cl)=C\c2ccccc2)SC1=S`, 2.45 µM.

Turning to `COc1ccc(/C=N/NC(=O)c2cc(O)c(O)c(O)c2)cc1Cn1cc([N+](=O)[O-])cn1`, the IC50 is 1.07 µM.

As to `COC(Cc1nnc(SC)n1-c1ccc(Cl)cc1)OC`, the IC50 is 43 µM. With `COc1cc(NC(=O)CS(=O)(=O)c2ccc(C)cc2)cc(OC)c1OC` the figure was 23.3 µM; with `CN(C)N1C(N)=C(C#N)C(c2cccnc2)C2=C1CCCC2=O` (stereo unspecified), 11.4 µM. As to `CN(C)[C@@H]1C(=O)C(C(N)=O)=C(O)[C@@]2(O)C(=O)C3=C(O)c4c(O)ccc(Cl)c4[C@@](C)(O)C3C[C@@H]12` (stereo partly specified), the IC50 was 7.02 µM.

`CCC(=O)OCCNc1cc(Sc2nc3ccccc3[nH]2)c2nonc2c1[N+](=O)[O-]`: the half-maximal inhibitory concentration (IC50) is 9.48 µM. With `CCOC(=O)c1c(NC(=O)c2cccs2)sc(C)c1C`, the IC50 is 32.9 µM. With `Cc1nc2cc(N=NC3=C(O)CCCC3=O)ccc2s1` the figure was 1.28 µM; with `Cc1cccc2cc(-c3ccccc3)c(-c3ccccc3)c[n+]12`, 6.83 µM. For `CCc1ccccc1N(CC(=O)NCCSCc1ccco1)S(C)(=O)=O` the value was 78.4 µM; for `COc1ccc(NS(=O)(=O)c2cccc(C(=O)NNC(=O)c3cccn3C)c2)cc1`, 12.7 µM; for `Cc1ccc(C)n1-c1ccc(C(=O)O)cc1`, 5.12 µM.

Turning to `CC1=CC(C)(C)Nc2ccc(OC(=O)CN3C(=O)c4cccc5cccc(c45)C3=O)cc21`, the IC50 is 1.99 µM. With `O=C(O)c1ccc(Sc2nnnn2-c2ccccc2)c([N+](=O)[O-])c1`, the IC50 is 89.9 µM. Take `CSc1nnc(-c2ccco2)c(-c2ccco2)n1`: the IC50 is 1.49 µM. On to `COc1ccc(N2CCN(C(=O)c3c(-c4ccccc4)noc3C)CC2)cc1`, for which the IC50 was 31.1 µM. `COC(=O)COc1ccc(S(=O)(=O)Nc2cc(OC)ccc2OC)cc1`: the IC50 was 5.05 µM. With `Cc1cc(-c2cc(-c3ccc(Cl)cc3)nc(N)c2C#N)co1` the figure was 12.4 µM; with `O=C(Cc1csc(N2CCOCC2)n1)N/N=C/c1ccc(O)c(O)c1O`, 1.3 µM; with `O=C1S/C(=C\C=C\c2ccco2)C(=O)N1c1ccc(O)cc1`, 0.69 µM. For `Cc1c(C(=O)N2CCN(c3ccc(F)cc3)CC2)sc2nc(-c3ccccc3)cn12`, the IC50 is 48.7 µM.

Regarding `Cc1nc2ncccn2c1-c1csc(NCc2ccco2)n1`, the concentration for half-maximal inhibition (IC50) was 1.22 µM. As for `O=C1N=C(N2CCOCC2)SC1=Cc1ccco1`, the IC50 is 92.5 µM. For `O=C1N=C(N2CCN(c3ccccc3)CC2)S/C1=C\c1ccco1` the value was 4.27 µM; for `COCCCNC(=O)/C(C#N)=C/c1ccc(OCC(=O)O)c(OC)c1`, 4.12 µM. As for `CCN(C(=O)CN1CCN(c2ccc(O)cc2)CC1)c1c(N)n(Cc2ccccc2)c(=O)[nH]c1=O`, the concentration for half-maximal inhibition (IC50) was 16.4 µM. With `O/N=C1\CCC\C1=C/c1ccco1` the figure was 7.57 µM. With `Cc1nc2ccccc2n2c(O)c(CC(=O)O)cc12`, the IC50 is 30.2 µM. For the compound `Brc1c(CSc2nnc(-c3ccco3)o2)nc2ccccn12`, the IC50 is 30.6 µM. For `CNCc1ccccc1Sc1ccc(O)c(O)c1` the value was 2.64 µM; for `Cc1ccc(C(=O)O)cc1-c1ccc(/C=C2/NC(=O)N(c3ccccc3)C2=O)o1`, 25.5 µM. For `C=CCn1c(N2CCCCCC2)nc2c1c(=O)[nH]c(=O)n2C` the value was 30.1 µM.

With `CN(C)c1ccc(NC(=O)Cn2cc3c(n2)CCCC3)cc1`, the IC50 is 6.08 µM. As to `CCN(CC)c1ccc(NC2=C(Cl)C(=O)c3ccccc3C2=O)cc1`, the IC50 was 3.81 µM. With `CC1(OC(=O)C2CCCC2)C(=O)C=C2C=C(c3ccsc3)OC=C2C1=O` (stereo unspecified), the IC50 is 8.75 µM. With `CCN(CC)c1ccc(NC2CC(=O)N(CCc3ccc(OC)cc3)C2=O)cc1` (stereo unspecified) the figure was 6.97 µM; with `COc1cccc(-c2cc(C(=O)Nc3c(C)n(C)n(-c4ccccc4)c3=O)no2)c1`, 72.5 µM; with `COC/C=C/C1=CC2=CC(=O)C(C)(OC(=O)c3ccco3)C(=O)C2=CO1` (stereo unspecified), 1.52 µM. Turning to `CCN1/C(=C(\O)c2ccccc2)C(=O)c2ccccc2S1(=O)=O`, the IC50 is 55 µM.

`N#C/C(=C\c1ccc([N+](=O)[O-])o1)C(=O)Nc1ccc(F)cc1`: the IC50 is 7.59 µM. With `O=C1NC(=Nc2ccc(O)cc2)S/C1=C\C=C\c1ccco1` the figure was 5.1 µM; with `Clc1ccc2nc3ccccn3c2c1`, 98.3 µM. In the case of `O=C(Nc1ccc(Cl)c(-c2nc3ccccc3[nH]2)c1)c1cccnc1`, the IC50 is 79.7 µM.

With `Cc1cccc(NC(=O)CSc2nnc(-c3ccco3)c(-c3ccco3)n2)c1C`, the IC50 was 4.3 µM. With `Cc1ccc(-c2nnn(CC(=O)N(c3ccc(F)cc3)C(C(=O)NC3CCCC3)c3ccco3)n2)o1` (stereo unspecified) the figure was 85.8 µM; with `CC1CCC/C(=C\Nc2ccc(C(=O)O)c(O)c2)C1=O` (stereo unspecified), 17.1 µM; with `COC(=O)Cn1ncn2c(cc3oc(C)cc32)c1=O`, 71.6 µM. As to `CC1COCC(C)N1C1=C(Cl)C(=O)c2ccccc2C1=O` (stereo unspecified), the IC50 is 11 µM. For `Cc1cc(O)c(C(C)C)cc1N=Cc1ccc([N+](=O)[O-])cc1` the value was 19 µM; for `O=C(CSc1ccc(Cl)cc1)c1ccco1`, 10.8 µM. On to `C=C(C)C(=O)Nc1ccc2c(c1)OCCOCCOCCO2`, for which the IC50 is 1.89 µM. With `O=C1NC(c2cccc(Br)c2)=N/C1=C\c1ccco1` the figure was 9.01 µM.

For orientation: IC50 means the concentration that inhibits the measured activity by half.
